Assay: xn = mol fraction of the nth substance listed
Details: 96.7 kPa, Liquid; for viscosity: Capillary tube (Ostwald / Ubbelohde) method; for mass density: Vibrating tube method

CCCCCCn1cc[n+](C)c1.[Cl-] [1-hexyl-3-methylimidazolium chloride] + C[S+](C)[O-]
Details | mass density [kg/m3] | viscosity [mPa·s]
303.15 K, x1 = 0.141 | 1078.5 | 6.523
303.15 K, x1 = 0.278 | 1068.64 | 23.07
303.15 K, x1 = 0.366 | 1063.06 | 54.37
303.15 K, x1 = 0.472 | 1057.13 | 134.28
303.15 K, x1 = 0.606 | 1050.34 | 343.91
303.15 K, x1 = 0.773 | 1043.22 | 806.64
303.15 K, x1 = 0.878 | 1039.66 | 2111.1
303.15 K, x1 = 1 | 1036.07 | 5718.5
308.15 K, x1 = 0.141 | 1074.26 | 5.691
308.15 K, x1 = 0.278 | 1064.88 | 18.67
308.15 K, x1 = 0.366 | 1059.5 | 41.74
308.15 K, x1 = 0.472 | 1053.74 | 100.12
308.15 K, x1 = 0.606 | 1047.15 | 242.91
308.15 K, x1 = 0.773 | 1040.19 | 554.65
308.15 K, x1 = 0.878 | 1036.71 | 1348.9
308.15 K, x1 = 1 | 1033.22 | 3430.8
313.15 K, x1 = 0.141 | 1070.08 | 4.951
313.15 K, x1 = 0.278 | 1061.15 | 15.46
313.15 K, x1 = 0.366 | 1055.94 | 33.33
313.15 K, x1 = 0.472 | 1050.36 | 76.29
313.15 K, x1 = 0.606 | 1043.96 | 176.38
313.15 K, x1 = 0.773 | 1037.17 | 384.99
313.15 K, x1 = 0.878 | 1033.77 | 895.04
313.15 K, x1 = 1 | 1030.38 | 2146.1
318.15 K, x1 = 0.141 | 1065.87 | 4.385
318.15 K, x1 = 0.278 | 1057.41 | 12.95
318.15 K, x1 = 0.366 | 1052.4 | 26.72
318.15 K, x1 = 0.472 | 1046.99 | 58.57
318.15 K, x1 = 0.606 | 1040.76 | 130.64
318.15 K, x1 = 0.773 | 1034.12 | 274.48
318.15 K, x1 = 0.878 | 1030.8 | 607.51
318.15 K, x1 = 1 | 1027.56 | 1390.4
323.15 K, x1 = 0.141 | 1061.67 | 3.892
323.15 K, x1 = 0.278 | 1053.68 | 10.99
323.15 K, x1 = 0.366 | 1048.87 | 21.9
323.15 K, x1 = 0.472 | 1043.65 | 46.32
323.15 K, x1 = 0.606 | 1037.58 | 98.7
323.15 K, x1 = 0.773 | 1031.12 | 201.06
323.15 K, x1 = 0.878 | 1027.89 | 425.84
323.15 K, x1 = 1 | 1024.75 | 928.1
328.15 K, x1 = 0.141 | 1057.48 | 3.493
328.15 K, x1 = 0.278 | 1049.95 | 9.439
328.15 K, x1 = 0.366 | 1045.35 | 18.22
328.15 K, x1 = 0.472 | 1040.31 | 37.12
328.15 K, x1 = 0.606 | 1034.41 | 76.27
328.15 K, x1 = 0.773 | 1028.15 | 150.51
328.15 K, x1 = 0.878 | 1025.02 | 306.13
328.15 K, x1 = 1 | 1021.92 | 638.79
333.15 K, x1 = 0.141 | 1053.31 | 3.154
333.15 K, x1 = 0.278 | 1046.23 | 8.18
333.15 K, x1 = 0.366 | 1041.84 | 15.34
333.15 K, x1 = 0.472 | 1036.99 | 30.3
333.15 K, x1 = 0.606 | 1031.26 | 60.05
333.15 K, x1 = 0.773 | 1025.19 | 114.9
333.15 K, x1 = 0.878 | 1022.16 | 227.29
333.15 K, x1 = 1 | 1019.13 | 453.59
338.15 K, x1 = 0.141 | 1049.14 | 2.85
338.15 K, x1 = 0.278 | 1042.51 | 7.175
338.15 K, x1 = 0.366 | 1038.35 | 13.14
338.15 K, x1 = 0.472 | 1033.67 | 25.52
338.15 K, x1 = 0.606 | 1028.12 | 48.07
338.15 K, x1 = 0.773 | 1022.24 | 89.02
338.15 K, x1 = 0.878 | 1019.29 | 169.96
338.15 K, x1 = 1 | 1016.38 | 327.52
343.15 K, x1 = 0.141 | 1045.01 | 2.594
343.15 K, x1 = 0.278 | 1038.81 | 6.291
343.15 K, x1 = 0.366 | 1034.87 | 11.28
343.15 K, x1 = 0.472 | 1030.39 | 20.88
343.15 K, x1 = 0.606 | 1025 | 39.06
343.15 K, x1 = 0.773 | 1019.29 | 70.28
343.15 K, x1 = 0.878 | 1016.44 | 129.41
343.15 K, x1 = 1 | 1013.65 | 243.04
348.15 K, x1 = 0.141 | 1040.88 | 2.378
348.15 K, x1 = 0.278 | 1035.11 | 5.597
348.15 K, x1 = 0.366 | 1031.39 | 9.738
348.15 K, x1 = 0.472 | 1027.11 | 17.65
348.15 K, x1 = 0.606 | 1021.88 | 32.05
348.15 K, x1 = 0.773 | 1016.35 | 56.52
348.15 K, x1 = 0.878 | 1013.59 | 100.3
348.15 K, x1 = 1 | 1010.91 | 183.45
353.15 K, x1 = 0.141 | 1036.68 | 2.184
353.15 K, x1 = 0.278 | 1031.43 | 4.998
353.15 K, x1 = 0.366 | 1027.93 | 8.538
353.15 K, x1 = 0.472 | 1023.84 | 15.07
353.15 K, x1 = 0.606 | 1018.78 | 26.7
353.15 K, x1 = 0.773 | 1013.43 | 45.71
353.15 K, x1 = 0.878 | 1010.75 | 81.75
353.15 K, x1 = 1 | 1008.18 | 140.06

Reference: the NIST ThermoML archive (doi:10.1016/j.jct.2017.07.016)
